Data from US10106572B1, “Supramolecular hacky sacks (SHS), method of synthesis and applications thereof” (University of Puerto Rico, priority 2014, dated 2018).
Several values for one entry are separate records, joined by “and”; a condition that tells them apart may be missing. Equal values may be shown once. Each block holds one molecule with its values, some of them ahead of it.

Key:
[1] = system: neuroblastoma (SH-SY5Y) cells; assay: MTT viability assay; assay type: cell-based, human; details: 0.2 μM DOX
[2] = Turbidimetry studies, cloud-point temperature (Tcp); assay type: physicochemical
Experimental: (§1) Solutions of 0.650 mL of ImAGhD2OH were prepared at 5 mM with 4 M KI. In the case of ImAGpD2OH, the solutions prepared were 5 mM with 2 M KI. By following this procedure the following ratio is recommended between ImAGhD2OH (or ImAGpD2OH) with KI salt: 0-10 mM of ImAGhD2OH (or ImAGpD2OH) with 2-4 M KI. To dissolve the solids it was prepared a 0.1 M sodium acetate buffer for pH values of 5, 5.1, 5.2, 5.3, 5.4, 5.5, 5.6, 5.7, 5.8, 5.9. For pH 6-7, PBS from Fisher Scientific was used. The samples were put in the refrigerator (−10° C.) overnight (˜12 h) for equilibration. This sample concentration was used for turbidity experiments, DSC, and DLS experiments. The concentrations of the resulting assemblies of SGQ and f-SHS were calculated in terms of the molecular weights of monomeric 8ArG derivative ImAGpD2OH or ImAGhD2OH.
This Tcp, which is measured by turbidimetry studies in UV-Vis, is the transition temperature to form the cluster of self-arranged supramolecular structures known as supramolecular hacky sacks (SHS). The turbidity measurements were performed at 650 nm using a Varian UV-visible spectrometer, Model Cary Bio-100. The heating rate was adjusted at 2.0° C./min using Cary temperature controller apparatus from Varian.

[3] = Isothermal turbidity, transition pH; assay type: physicochemical; details: for pKa: previously estimated, imidazole-containing ImAG
Experimental: as §1
Before the imidazole modification of ImAGpD2OH and ImAGhD2OH, chalcone imidazole standard derivative (E)-3-(1-methyl-1H-imidazol-2-yl)-1-phenylprop-2-en-1-one (ImAG std) was synthesized by the same aldol condensation method to obtain an estimation of the pKa by measuring the absorbance at different pHs in a Varian UV-visible spectrometer, Model Cary Bio-100 as shown in FIG. 14. For the transition pH measurement, Isothermal measurements at 26.0° C. were performed in a SPECTRAmax 340 microplate reader at 650 nm. In these experiments 100 μL of sample was added in each well in triplicate for pH: 5, 5.1, 5.2, 5.3, 5.4, 5.5, 5.6, 5.7, 5.8, 5.9, 6.0, 6.5, 7.0 and 7.5. After the microplate wells were filled, the microplate was placed in the refrigerator (−10° C.) for equilibration. Afterwards, an 85% weighted curve fit was performed to the obtained graph. According to the standard experiments performed, the pKa of ImAG std is between 5.5 and 6.
Aside from the effect of the pH on the precise assembly of the nanoglobular SGQs, we observed, at 26° C., a pH-responsive phase transition where, at pH 5 the system is in solution, but changing it to pH 7 results in the solution becoming cloudy.

[4] = Differential scanning calorimetry (DSC) of SGQ assemblies; assay type: physicochemical; details: for Tt: LCST transition
Experimental: The ΔGcal and ΔScal values shown in this table correspond to those calculated using the values of Tt, Tm, and ΔHcal from the instrument. All ΔG values were calculated at a temperature of 20° C.
Differential Scanning calorimetry (DSC) analyses were performed on a VP-DSC Micro-Calorimeter from MicroCal and Origin (v.7) was used for data processing. For the experiment, the buffer was first degasified and the experiment was carried out as a blank in both sample and reference cell. Then, the sample was degasified, and the blank buffer in the sample cell to be substituted with sample was removed. Afterwards, the experiment was performed with a temperature ramp of 0° C.-80° C. for 4 cycles.

[5] = pKa estimation by UV-VIS absorbance at different pHs; assay type: physicochemical; details: UV absorbance at pH 5-7.5
From the text: During the synthesis of derivatives ImAGhD2OH and ImAGpD2OH, an ImAG std (with a molecular structure as shown in FIG. 8) was constructed to obtain information of the pKa of the derivative by UV-VIS measurements. This allowed to study the effect of the functionality added in the 8ArG derivative. Derivative (E)-3-(1-methyl-1H-imidazol-2-yl)-1-phenylprop-2-en-1-one (ImAG std), with a chemical formula C13H12N2O, offers an alternative method to determine the pKa without having to perform the entire synthetic sequence for the corresponding compounds ImAGhD2OH and ImAGpD2OH. In the case of ImAG standard, the same procedure as above was followed, but the obtained solid was washed with ether and hexane. ImAG std was characterized as shown in FIG. 9 and FIG. 10 by using ^1H NMR and ^13C NMR, respectively. Yellow solid, mp (125.2-126.3) ° C. […]
Before the imidazole modification of ImAGpD2OH and ImAGhD2OH, chalcone imidazole standard derivative (E)-3-(1-methyl-1H-imidazol-2-yl)-1-phenylprop-2-en-1-one (ImAG std) was synthesized by the same aldol condensation method to obtain an estimation of the pKa by measuring the absorbance at different pHs in a Varian UV-visible spectrometer, Model Cary Bio-100 as shown in FIG. 14. For the transition pH measurement, Isothermal measurements at 26.0° C. were performed in a SPECTRAmax 340 microplate reader at 650 nm. […]

[6] = ImAGhD2OH, pH 5.0, calculated at 20° C.
[7] = ImAGhD2OH, pH 5.5, calculated at 20° C.
[8] = ImAGhD2OH, pH 6:0, calculated at 20° C.
[9] = ImAGhD2OH, pH 6.5, calculated at 20° C.
[10] = ImAGhD2OH, pH 7.0, calculated at 20° C.
[11] = ImAGpD2OH, pH 5.0, calculated at 20° C.
[12] = ImAGpD2OH, pH 7.0, calculated at 20° C.

SMILES: COc1cccc2c1C(=O)c1c(O)c3c(c(O)c1C2=O)C[C@@](O)(C(=O)CO)C[C@@H]3O[C@H]1C[C@H](N)[C@H](O)[C@H](C)O1 [DOX, doxorubicin]
cytotoxicity (MTT) [1]: cytotoxic

ΔTcp ([2]; between hSGQ and oSGQ): ≈ 25 °C | cloud-point temperature (Tcp) ([2]; oSGQ, pH 6-7, 650 nm): around 4 °C | cloud-point temperature (Tcp) ([2]; protonated hSGQ, at pHs and 5.5, 650 nm): 29 °C | pKa [3]: 5.7 | transition pH ([3]; transmittance at 650 nm, 26° C., at 65% of the transmittance): around 5.7 | ΔHTm ([4]; ImAGhD2OH, pH 5.0): 64.32 kcal/mol | ΔSTm ([4]; ImAGhD2OH, pH 5.0): 0.884 kcal/mol · ° C. | ΔSTt ([4]; ImAGhD2OH, pH 5.0): 0.778 kcal/mol · ° C. | Tt ([4]; ImAGhD2OH, pH 5.0, aqueous solution): 59.3 °C and 59.26 °C | ΔGT: [4, 6]: 30.67 kcal/mol | ΔGTm [4, 6]: 46.64 kcal/mol | Tm ([4]; ImAGhD2OH, pH 5.0, melting of SGQ assembly): 72.7 °C and 72.72 °C | ΔHTm ([4]; ImAGhD2OH, pH 5.5): 62.58 kcal/mol | ΔHTt ([4]; ImAGhD2OH, pH 5.5): 146 kcal/mol and 146.0 kcal/mol | ΔSTm ([4]; ImAGhD2OH, pH 5.5): 0.912 kcal/mol · ° C. | ΔSTt ([4]; ImAGhD2OH, pH 5.5): 2.704 kcal/mol · ° C. | Tt ([4]; ImAGhD2OH, pH 5.5, aqueous solution): 54.00 °C | ΔGT: [4, 7]: 91.92 kcal/mol | ΔGTm [4, 7]: 44.34 kcal/mol | Tm ([4]; ImAGhD2OH, pH 5.5, melting of SGQ assembly): 68.64 °C | ΔHTm ([4]; ImAGhD2OH, pH 6:0): 11.20 kcal/mol | ΔHTt ([4]; ImAGhD2OH, pH 6:0): 0.123 kcal/mol | ΔSTm ([4]; ImAGhD2OH, pH 6:0): 0.272 kcal/mol · ° C. | ΔSTt ([4]; ImAGhD2OH, pH 6:0): 0.0216 kcal/mol · ° C. | Tt ([4]; ImAGhD2OH, pH 6:0, aqueous solution): 5.702 °C | ΔGT: [4, 8]: -0.309 kcal/mol | ΔGTm [4, 8]: 5.76 kcal/mol | Tm ([4]; ImAGhD2OH, pH 6:0, melting of SGQ assembly): 41.12 °C | ΔHTm ([4]; ImAGhD2OH, pH 6.5): 11.80 kcal/mol | ΔHTt ([4]; ImAGhD2OH, pH 6.5): 0.0522 kcal/mol | ΔSTm ([4]; ImAGhD2OH, pH 6.5): 0.316 kcal/mol · ° C. | ΔSTt ([4]; ImAGhD2OH, pH 6.5): 0.0106 kcal/mol · ° C. | Tt ([4]; ImAGhD2OH, pH 6.5, aqueous solution): 4.938 °C | ΔGT: [4, 9]: -0.160 kcal/mol | ΔGTm [4, 9]: 5.48 kcal/mol | Tm ([4]; ImAGhD2OH, pH 6.5, melting of SGQ assembly): 37.32 °C | ΔHTm ([4]; ImAGhD2OH, pH 7.0): 15.42 kcal/mol | ΔHTt ([4]; ImAGhD2OH, pH 7.0): 0.078 kcal/mol and 0.0784 kcal/mol | ΔSTm ([4]; ImAGhD2OH, pH 7.0): 0.362 kcal/mol · ° C. | ΔSTt ([4]; ImAGhD2OH, pH 7.0): 0.0144 kcal/mol · ° C. | Tt ([4]; ImAGhD2OH, pH 7.0, aqueous solution): 5.4 °C and 5.449 °C | ΔGT: [4, 10]: -0.210 kcal/mol | ΔGTm [4, 10]: 8.18 kcal/mol | Tm ([4]; ImAGhD2OH, pH 7.0, melting of SGQ assembly): 42.6 °C and 42.64 °C | ΔTt ([4]; between oSGQ (pH 7) and hSGQ (pH 5)): ≈ 53.9 °C
SMILES: Cn1ccnc1/C=C/C(=O)c1cccc(-c2nc3c(=O)[nH]c(N)nc3n2[C@H]2C[C@H](OC(=O)CCCCCn3cc(COC(=O)C(C)(CO)CO)nn3)[C@@H](COC(=O)CCCCCn3cc(COC(=O)C(C)(CO)CO)nn3)O2)c1 [ImAGhD2OH]

pKa [5]: 5.5 to 6
SMILES: Cn1ccnc1/C=C/C(=O)c1ccccc1 [ImAG std, (E)-3-(1-methyl-1H-imidazol-2-yl)-1-phenylprop-2-en-1-one]

Tcp ([2]; hSGQ at pH 5): 42 °C | shift of ΔTcp ([2]; hSGQ at pH 5, relative to ImAGhD2OH): 13 °C | Tcp ([2]; oSGQ at pH 7): 15 °C | shift of ΔTcp ([2]; oSGQ at pH 7, relative to ImAGhD2OH): 10 °C | pKa [3]: 5.7 | ΔHTm ([4]; ImAGpD2OH, pH 5.0): 57.01 kcal/mol | ΔHTt ([4]; ImAGpD2OH, pH 5.0): 8.41 kcal/mol | ΔSTm ([4]; ImAGpD2OH, pH 5.0): 0.808 kcal/mol · ° C. | ΔSTt ([4]; ImAGpD2OH, pH 5.0): 0.167 kcal/mol · ° C. | Tt ([4]; ImAGpD2OH, pH 5.0, aqueous solution): 50.5 °C and 50.45 °C | ΔGT: [4, 11]: 5.07 kcal/mol | ΔGTm [4, 11]: 40.85 kcal/mol | Tm ([4]; ImAGpD2OH, pH 5.0, melting of SGQ assembly): 70.52 °C | ΔHTm ([4]; ImAGpD2OH, pH 7.0): 101.3 kcal/mol | ΔHTt ([4]; ImAGpD2OH, pH 7.0): 4.36 kcal/mol | ΔSTm ([4]; ImAGpD2OH, pH 7.0): 1.805 kcal/mol · ° C. | ΔSTt ([4]; ImAGpD2OH, pH 7.0): 0.505 kcal/mol · ° C. | Tt ([4]; ImAGpD2OH, pH 7.0, aqueous solution): 8.6 °C and 8.631 °C | ΔGT: [4, 12]: -5.74 kcal/mol | ΔGTm [4, 12]: 65.20 kcal/mol | Tm ([4]; ImAGpD2OH, pH 7.0, melting of SGQ assembly): 56.11 °C
SMILES: Cn1ccnc1/C=C/C(=O)c1cccc(-c2nc3c(=O)[nH]c(N)nc3n2[C@H]2C[C@H](OC(=O)CCCCn3cc(COC(=O)C(C)(CO)CO)nn3)[C@@H](COC(=O)CCCCn3cc(COC(=O)C(C)(CO)CO)nn3)O2)c1 [ImAGpD2OH]
